Experimental data as given in PubChem BioAssay AID2060903 (Molecular Pharmacology Branch, DTP, NCI, 2025).
Values belong to the compound of their own block, whether it stands above or below them.

System: 377384-186-R-J1-PDC complex spheroid viability
Assay: Anticancer human tumor 377384-186-R-J1-PDC patient-derived pancreatic carcinoma cell line growth inhibition [RAS]
Settings: for IC50: curve of first compound; for viability, T/C: stronger effect = lower value
How it was run: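 Multi-cell-type spheroids: tumor cells plus HUVEC endothelial cells and mesenchymal stem cells. RAS-pathway inhibitors were combined with targeted agents, each dosed in half-log steps down from clinical Cmax, or from 10 microM when Cmax was unknown.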
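Also: spheroids exposed to compounds for seven days before readout.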

IC50 (second compound 0.000949 µM): > 1000 nM
IC50 (second compound 0.003 µM): > 1000 nM
IC50 (second compound 0.00949 µM): > 1000 nM
IC50 (second compound 0.03 µM): > 1000 nM
IC50 (second compound 0.0949 µM): > 1000 nM
IC50 (second compound 0.3 µM): > 1000 nM
Structure (SMILES): C=CC(=O)N1CCN(c2nc(OCC3CCCN3C)nc3c(F)c(-c4nc(N)cc(C)c4C(F)(F)F)c(Cl)cc23)C(C)C1 (centres undefined) + CCn1c(-c2cccnc2C(C)OC)c2c3cc(ccc31)N1CCOC(CC(NC(=O)C(C(C)C)N(C)C(=O)C3(F)CCN(C(=O)C#CC(C)(C)N(C)C)CC3)C(=O)N3CCCC(N3)C(=O)OCC(C)(C)C2)C1
viability, T/C (second compound 0.000949 µM, first compound 0.00316 µM): 107%
viability, T/C (second compound 0.000949 µM, first compound 0.01 µM): 108%
viability, T/C (second compound 0.000949 µM, first compound 0.0316 µM): 117%
viability, T/C (second compound 0.000949 µM, first compound 0.1 µM): 103%
viability, T/C (second compound 0.000949 µM, first compound 0.316 µM): 110%
viability, T/C (second compound 0.000949 µM, first compound 1 µM): 89.9%
viability, T/C (second compound 0.003 µM, first compound 0.00316 µM): 104%
viability, T/C (second compound 0.003 µM, first compound 0.01 µM): 96.4%
viability, T/C (second compound 0.003 µM, first compound 0.0316 µM): 103%
viability, T/C (second compound 0.003 µM, first compound 0.1 µM): 114%
viability, T/C (second compound 0.003 µM, first compound 0.316 µM): 104%
viability, T/C (second compound 0.003 µM, first compound 1 µM): 93.3%
viability, T/C (second compound 0.00949 µM, first compound 0.00316 µM): 113%
viability, T/C (second compound 0.00949 µM, first compound 0.01 µM): 97.7%
viability, T/C (second compound 0.00949 µM, first compound 0.0316 µM): 120%
viability, T/C (second compound 0.00949 µM, first compound 0.1 µM): 117%
viability, T/C (second compound 0.00949 µM, first compound 0.316 µM): 104%
viability, T/C (second compound 0.00949 µM, first compound 1 µM): 99.2%
viability, T/C (second compound 0.03 µM, first compound 0.00316 µM): 104%
viability, T/C (second compound 0.03 µM, first compound 0.01 µM): 96.7%
viability, T/C (second compound 0.03 µM, first compound 0.0316 µM): 99.7%
viability, T/C (second compound 0.03 µM, first compound 0.1 µM): 92.5%
viability, T/C (second compound 0.03 µM, first compound 0.316 µM): 99%
viability, T/C (second compound 0.03 µM, first compound 1 µM): 106%
viability, T/C (second compound 0.0949 µM, first compound 0.00316 µM): 93.3%
viability, T/C (second compound 0.0949 µM, first compound 0.01 µM): 91.3%
viability, T/C (second compound 0.0949 µM, first compound 0.0316 µM): 94.8%
viability, T/C (second compound 0.0949 µM, first compound 0.1 µM): 103%
viability, T/C (second compound 0.0949 µM, first compound 0.316 µM): 101%
viability, T/C (second compound 0.0949 µM, first compound 1 µM): 93.4%
viability, T/C (second compound 0.3 µM, first compound 0.00316 µM): 86.1%
viability, T/C (second compound 0.3 µM, first compound 0.01 µM): 86.3%
viability, T/C (second compound 0.3 µM, first compound 0.0316 µM): 96.8%
viability, T/C (second compound 0.3 µM, first compound 0.1 µM): 88.1%
viability, T/C (second compound 0.3 µM, first compound 0.316 µM): 96%
viability, T/C (second compound 0.3 µM, first compound 1 µM): 94.8%

IC50 (second compound 0.000949 µM): 6.49 nM
IC50 (second compound 0.003 µM): 6.94 nM
IC50 (second compound 0.00949 µM): 6.25 nM
IC50 (second compound 0.03 µM): 6.09 nM
IC50 (second compound 0.0949 µM): 4.39 nM
IC50 (second compound 0.3 µM): 4.25 nM
Structure (SMILES): CC1(C)CCC(Nc2ncc(C(F)(F)F)c(-c3c[nH]c4c(P(C)(C)=O)c(C#N)ccc34)n2)CN1 (centres undefined) + CCn1c(-c2cccnc2C(C)OC)c2c3cc(ccc31)N1CCOC(CC(NC(=O)C(C(C)C)N(C)C(=O)C3(F)CCN(C(=O)C#CC(C)(C)N(C)C)CC3)C(=O)N3CCCC(N3)C(=O)OCC(C)(C)C2)C1
viability, T/C (second compound 0.000949 µM, first compound 0.000949 µM): 96%
viability, T/C (second compound 0.000949 µM, first compound 0.003 µM): 75.9%
viability, T/C (second compound 0.000949 µM, first compound 0.00949 µM): 36.1%
viability, T/C (second compound 0.000949 µM, first compound 0.03 µM): 30.8%
viability, T/C (second compound 0.000949 µM, first compound 0.0949 µM): 22.1%
viability, T/C (second compound 0.000949 µM, first compound 0.3 µM): 22.8%
viability, T/C (second compound 0.003 µM, first compound 0.000949 µM): 92.7%
viability, T/C (second compound 0.003 µM, first compound 0.003 µM): 82.8%
viability, T/C (second compound 0.003 µM, first compound 0.00949 µM): 37.5%
viability, T/C (second compound 0.003 µM, first compound 0.03 µM): 25.2%
viability, T/C (second compound 0.003 µM, first compound 0.0949 µM): 22.9%
viability, T/C (second compound 0.003 µM, first compound 0.3 µM): 20.3%
viability, T/C (second compound 0.00949 µM, first compound 0.000949 µM): 96.6%
viability, T/C (second compound 0.00949 µM, first compound 0.003 µM): 71.8%
viability, T/C (second compound 0.00949 µM, first compound 0.00949 µM): 37.8%
viability, T/C (second compound 0.00949 µM, first compound 0.03 µM): 23.5%
viability, T/C (second compound 0.00949 µM, first compound 0.0949 µM): 21.9%
viability, T/C (second compound 0.00949 µM, first compound 0.3 µM): 20.6%
viability, T/C (second compound 0.03 µM, first compound 0.000949 µM): 85.2%
viability, T/C (second compound 0.03 µM, first compound 0.003 µM): 73.4%
viability, T/C (second compound 0.03 µM, first compound 0.00949 µM): 35.3%
viability, T/C (second compound 0.03 µM, first compound 0.03 µM): 19.5%
viability, T/C (second compound 0.03 µM, first compound 0.0949 µM): 19.3%
viability, T/C (second compound 0.03 µM, first compound 0.3 µM): 16.3%
viability, T/C (second compound 0.0949 µM, first compound 0.000949 µM): 88.5%
viability, T/C (second compound 0.0949 µM, first compound 0.003 µM): 61.7%
viability, T/C (second compound 0.0949 µM, first compound 0.00949 µM): 26.1%
viability, T/C (second compound 0.0949 µM, first compound 0.03 µM): 19.4%
viability, T/C (second compound 0.0949 µM, first compound 0.0949 µM): 16.6%
viability, T/C (second compound 0.0949 µM, first compound 0.3 µM): 14.8%
viability, T/C (second compound 0.3 µM, first compound 0.000949 µM): 85.2%
viability, T/C (second compound 0.3 µM, first compound 0.003 µM): 61.6%
viability, T/C (second compound 0.3 µM, first compound 0.00949 µM): 23%
viability, T/C (second compound 0.3 µM, first compound 0.03 µM): 18.1%
viability, T/C (second compound 0.3 µM, first compound 0.0949 µM): 15.7%
viability, T/C (second compound 0.3 µM, first compound 0.3 µM): 13.4%
